Patent US10800792B2, “Inhibitors of Bruton's tyrosine kinase and method of their use” (JANSSEN PHARMACEUTICA NV, priority 2015, dated 2020)

Biological target: unphosphorylated-BTK kinase domain (UP-BTK), GST-tagged human BTK (389-659aa) (Homo sapiens (Human), UniProt Q06187)
Experiment: BTK kinase Lanthascreen binding assay
Settings: unphosphorylated-BTK kinase domain, 50 nM Tracer 236, 60 minutes; pIC50 = negative log of the IC50 in molar
Procedure, shortened: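 Tracer-displacement binding assay against the non-phosphorylated enzyme, read by Lanthascreen. Reported: pIC50.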

unphosphorylated-BTK kinase domain (UP-BTK), GST-tagged human BTK (389-659aa), sequence (Q06187 389-659): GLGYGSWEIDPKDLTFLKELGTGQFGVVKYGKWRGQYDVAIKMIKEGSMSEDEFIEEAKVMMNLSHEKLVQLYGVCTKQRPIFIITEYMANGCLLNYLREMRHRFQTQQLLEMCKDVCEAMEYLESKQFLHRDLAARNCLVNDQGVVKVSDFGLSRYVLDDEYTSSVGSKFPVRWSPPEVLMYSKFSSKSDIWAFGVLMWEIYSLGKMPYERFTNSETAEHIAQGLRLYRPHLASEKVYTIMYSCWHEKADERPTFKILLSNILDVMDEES

| Structure (SMILES) | BTK_I_binding pIC50 |
| --- | --- |
| Cc1cc(Oc2ccccc2)c(F)cc1N1C(=O)Nc2c(C(=O)N[C@@H]3CCCN(C)C3)sc3nccc1c23 [Example 303, (R)-5-(5-Fluoro-2-methyl-4-phenoxyphenyl)-N-(1-methylpiperidin-3-yl)-4-oxo-4,5-dihydro-3H-1-thia-3,5,8-triazaacenaphthylene-2-carboxamide] | 6.0 |
| C=CC(=O)N1CC[C@@H](NC(=O)c2sc3nccc4c3c2NC(=O)N4c2ccc(C)cc2C)C1 [Example 304, (R)—N-(1-Acryloylpyrrolidin-3-yl)-5-(2,4-dimethylphenyl)-4-oxo-4,5-dihydro-3H-1-thia-3,5,8-triazaacenaphthylene-2-carboxamide] | 6.0 |
| Cc1cc(Oc2ccccc2)c(F)cc1N1C(=O)Nc2c(C(=O)N[C@@H]3CCCOC3)sc3nccc1c23 [Example 305, (R)-5-(5-Fluoro-2-methyl-4-phenoxyphenyl)-4-oxo-N-(tetrahydro-2H-pyran-3-yl)-4,5-dihydro-3H-1-thia-3,5,8-triazaacenaphthylene-2-carboxamide] | 6.0 |
| Cc1cc(Oc2ccccn2)ccc1N1C(=O)Nc2c(C(=O)N[C@@H]3CCCN(C)C3)sc3nccc1c23 [Example 306, (R)-5-(2-Methyl-4-(pyridin-2-yloxy)phenyl)-N-(1-methylpiperidin-3-yl)-4-oxo-4,5-dihydro-3H-1-thia-3,5,8-triazaacenaphthylene-2-carboxamide] | 6.0 |
| Cc1cc(Oc2ccccc2)c(F)cc1N1C(=O)Nc2c(C(=O)N[C@H]3CCCOC3)sc3nccc1c23 [Example 308, (S)-5-(5-Fluoro-2-methyl-4-phenoxyphenyl)-4-oxo-N-(tetrahydro-2H-pyran-3-yl)-4,5-dihydro-3H-1-thia-3,5,8-triazaacenaphthylene-2-carboxamide] | 6.0 |
| Cc1cc(Oc2ccccc2)ccc1N1C(=O)Nc2c(C(=O)N[C@H]3CCCCN(Cc4ccccc4)C3=O)sc3nccc1c23 [Example 309, (S)—N-(1-Benzyl-2-oxoazepan-3-yl)-5-(2-methyl-4-phenoxyphenyl)-4-oxo-4,5-dihydro-3H-1-thia-3,5,8-triazaacenaphthylene-2-carboxamide] | 6.0 |
| Cc1cc(Oc2ccccc2)ccc1N1C(=O)Nc2c(C(=O)NC[C@@H]3CCCCN3)sc3nccc1c23 [Example 310, (S)-5-(2-Methyl-4-phenoxyphenyl)-4-oxo-N-(piperidin-2-ylmethyl)-4,5-dihydro-3H-1-thia-3,5,8-triazaacenaphthylene-2-carboxamide] | 6.0 |
| C=CC(=O)N1CC[C@@H](NC(=O)c2sc3nccc4c3c2NC(=O)N4c2ccc(Oc3ccccc3)nn2)C1 [Example 311, (R)—N-(1-Acryloylpyrrolidin-3-yl)-4-oxo-5-(6-phenoxypyridazin-3-yl)-4,5-dihydro-3H-1-thia-3,5,8-triazaacenaphthylene-2-carboxamide] | 5.9 |
| CO[C@H]1C[C@@H](NC(=O)c2sc3nccc4c3c2NC(=O)N4c2ccc(Oc3ccccc3)cc2C)CN(C)C1 [Example 312, N-((3R,5S)-5-Methoxy-1-methylpiperidin-3-yl)-5-(2-methyl-4-phenoxyphenyl)-4-oxo-4,5-dihydro-3H-1-thia-3,5,8-triazaacenaphthylene-2-carboxamide] | 5.9 |
| C=CC(=O)N1CC[C@@H](NC(=O)c2sc3nccc4c3c2NC(=O)N4c2ccccc2C)C1 [Example 314, (R)—N-(1-Acryloylpyrrolidin-3-yl)-4-oxo-5-(o-tolyl)-4,5-dihydro-3H-1-thia-3,5,8-triazaacenaphthylene-2-carboxamide] | 5.9 |
| Cc1cc(Oc2ccccc2)ccc1N1C(=O)Nc2c(C(=O)NCC(=O)N3CCOCC3)sc3nccc1c23 [Example 315, 5-(2-Methyl-4-phenoxyphenyl)-N-(2-morpholino-2-oxoethyl)-4-oxo-4,5-dihydro-3H-1-thia-3,5,8-triazaacenaphthylene-2-carboxamide] | 6.9 |
| Cc1cc(Oc2ccccc2)cc(C)c1N1C(=O)Nc2c(C(=O)N[C@@H]3CCCN(C)C3)sc3nccc1c23 [Example 317, (R)-5-(2,6-Dimethyl-4-phenoxyphenyl)-N-(1-methylpiperidin-3-yl)-4-oxo-4,5-dihydro-3H-1-thia-3,5,8-triazaacenaphthylene-2-carboxamide] | 5.8 |
| CCN1CCC[C@@H](NC(=O)c2sc3nccc4c3c2NC(=O)N4c2ccc(Oc3ccccc3C(C)C)cc2C)C1 [Example 320, (R)—N-(1-Ethylpiperidin-3-yl)-5-(4-(2-isopropylphenoxy)-2-methylphenyl)-4-oxo-4,5-dihydro-3H-1-thia-3,5,8-triazaacenaphthylene-2-carboxamide] | 6.7 |

The next lines start with the values.

| BTK_I_binding pIC50 | Structure (SMILES) |
| --- | --- |
| 5.7 | Cc1cc(OC2CC2)ccc1N1C(=O)Nc2c(C(=O)N[C@@H]3CCCN(C)C3)sc3nccc1c23 [Example 322, (R)-5-(4-Cyclopropoxy-2-methylphenyl)-N-(1-methylpiperidin-3-yl)-4-oxo-4,5-dihydro-3H-1-thia-3,5,8-triazaacenaphthylene-2-carboxamide] |
| 5.7 | C=CC(=O)N1CC[C@@H](NC(=O)c2sc3nccc4c3c2NC(=O)N4c2ccc(Oc3ccccc3)cc2C(F)(F)F)C1 [Example 324, (R)—N-(1-Acryloylpyrrolidin-3-yl)-4-oxo-5-(4-phenoxy-2-(trifluoromethyl)phenyl)-4,5-dihydro-3H-1-thia-3,5,8-triazaacenaphthylene-2-carboxamide] |
| 5.7 | Cc1cc(Oc2ccccc2C(N)=O)ccc1N1C(=O)Nc2c(C(=O)N[C@@H]3CCCN(C)C3)sc3nccc1c23 [Example 326, (R)-5-(4-(2-Carbamoylphenoxy)-2-methylphenyl)-N-(1-methylpiperidin-3-yl)-4-oxo-4,5-dihydro-3H-1-thia-3,5,8-triazaacenaphthylene-2-carboxamide] |
| 5.7 | Cc1cnc2sc(C(=O)N[C@@H]3CCCNC3)c3c2c1N(c1ccc(Oc2ccccc2)cc1)C(=O)N3 [Example 328, (R)-6-Methyl-4-oxo-5-(4-phenoxyphenyl)-N-(piperidin-3-yl)-4,5-dihydro-3H-1-thia-3,5,8-triazaacenaphthylene-2-carboxamide] |
| 5.6 | O=C(N[C@@H]1CCCNC1)c1sc2nccc3c2c1NC(=O)N3c1cc(Cl)cc(Cl)c1 [Example 330, (R)-5-(3,5-Dichlorophenyl)-4-oxo-N-(piperidin-3-yl)-4,5-dihydro-3H-1-thia-3,5,8-triazaacenaphthylene-2-carboxamide] |
| 5.5 | Cc1cc(Oc2ccccc2)ccc1N1C(=O)Nc2c(C(=O)N(C)[C@@H]3CCNC3)sc3nccc1c23 [Example 331, (R)—N-Methyl-5-(2-methyl-4-phenoxyphenyl)-4-oxo-N-(pyrrolidin-3-yl)-4,5-dihydro-3H-1-thia-3,5,8-triazaacenaphthylene-2-carboxamide] |
| 5.5 | Cc1cc(OC(C)C)ccc1N1C(=O)Nc2c(C(=O)N[C@@H]3CCCN(C)C3)sc3nccc1c23 [Example 332, (R)-5-(4-Isopropoxy-2-methylphenyl)-N-(1-methylpiperidin-3-yl)-4-oxo-4,5-dihydro-3H-1-thia-3,5,8-triazaacenaphthylene-2-carboxamide] |
| 5.5 | CCOc1ccc(N2C(=O)Nc3c(C(=O)N[C@@H]4CCCN(C)C4)sc4nccc2c34)c(C)c1 [Example 333, (R)-5-(4-Ethoxy-2-methylphenyl)-N-(1-methylpiperidin-3-yl)-4-oxo-4,5-dihydro-3H-1-thia-3,5,8-triazaacenaphthylene-2-carboxamide] |
| 5.5 | C=CC(=O)N1CCC[C@@H](NC(=O)c2sc3nccc4c3c2NC(=O)N4c2ccc(C(C)(C)C)cc2)C1 [Example 334, (R)—N-(1-Acryloylpiperidin-3-yl)-5-(4-(tert-butyl)phenyl)-4-oxo-4,5-dihydro-3H-1-thia-3,5,8-triazaacenaphthylene-2-carboxamide] |
| 5.4 | O=C(N[C@@H]1CCCNC1)c1sc2nccc3c2c1NC(=O)N3c1cccc(Cl)c1 [Example 336, (R)-5-(3-Chlorophenyl)-4-oxo-N-(piperidin-3-yl)-4,5-dihydro-3H-1-thia-3,5,8-triazaacenaphthylene-2-carboxamide] |
| 5.4 | C=CC(=O)N1CC[C@@H](NC(=O)c2sc3nccc4c3c2NC(=O)N4c2ccccc2)C1 [Example 337, (R)—N-(1-Acryloylpyrrolidin-3-yl)-4-oxo-5-phenyl-4,5-dihydro-3H-1-thia-3,5,8-triazaacenaphthylene-2-carboxamide] |
| 5.4 | Cc1cc(Oc2ccccc2)ccc1N1C(=O)Nc2c(C(=O)N(C)[C@@H]3CCN(C)C3)sc3nccc1c23 [Example 338, (R)—N-Methyl-5-(2-methyl-4-phenoxyphenyl)-N-(1-methylpyrrolidin-3-yl)-4-oxo-4,5-dihydro-3H-1-thia-3,5,8-triazaacenaphthylene-2-carboxamide] |
| 5.3 | COc1ccc(N2C(=O)Nc3c(C(=O)N[C@@H]4CCCN(C)C4)sc4nccc2c34)c(C)c1 [Example 340, (R)-5-(4-Methoxy-2-methylphenyl)-N-(1-methylpiperidin-3-yl)-4-oxo-4,5-dihydro-3H-1-thia-3,5,8-triazaacenaphthylene-2-carboxamide] |
| 5.2 | O=C(N[C@@H]1CCCNC1)c1sc2nccc3c2c1NC(=O)N3c1ccc(C(F)(F)F)cc1 [Example 341, (R)-4-Oxo-N-(piperidin-3-yl)-5-(4-(trifluoromethyl)phenyl)-4,5-dihydro-3H-1-thia-3,5,8-triazaacenaphthylene-2-carboxamide] |
| 5.2 | COc1ccc(N2C(=O)Nc3c(C(=O)N[C@@H]4CCCNC4)sc4nccc2c34)cc1 [Example 342, (R)-5-(4-Methoxyphenyl)-4-oxo-N-(piperidin-3-yl)-4,5-dihydro-3H-1-thia-3,5,8-triazaacenaphthylene-2-carboxamide] |
